Patent publication US10213427B2 (Incyte Corporation, priority 2010, dated 2019)

Biological target: FGFR3 enzyme (Millipore) (Homo sapiens (Human), UniProt P22607)
Assay: FGFR3 Enzymatic Assay
Format: biochemical
Details: FRET peptide phosphorylation, 140 μM ATP
Experimental: The inhibitor potency of compounds of the invention was measured in an enzyme assay that measures peptide phosphorylation using FRET measurements to detect product formation. Inhibitors were serially diluted in DMSO and a volume of 0.5 μL was transferred to the wells of a 384-well plate. A 10 μL volume of FGFR3 enzyme (Millipore) diluted in assay buffer (50 mM HEPES, 10 mM MgCl2, 1 mM EGTA, 0.01% Tween-20, 5 mM DTT, pH 7.5) was added to the plate and pre-incubated for 5-10 minutes. Appropriate controls (enzyme blank and enzyme with no inhibitor) were included on the plate. […] The plate was incubated at 25° C. for 1 hr. […] The plate was allowed to equilibrate for ˜1 hr before scanning the wells on a PheraStar plate reader.
GraphPad prism3 was used to analyze the data. The IC50 values were derived by fitting the data to the equation for a sigmoidal dose-response with a variable slope. Y=Bottom+(Top−Bottom)/(1+10^((Log IC50−X)*HillSlope)) where X is the logarithm of concentration and Y is the response.

FGFR3 enzyme (Millipore), sequence (P22607 23-806): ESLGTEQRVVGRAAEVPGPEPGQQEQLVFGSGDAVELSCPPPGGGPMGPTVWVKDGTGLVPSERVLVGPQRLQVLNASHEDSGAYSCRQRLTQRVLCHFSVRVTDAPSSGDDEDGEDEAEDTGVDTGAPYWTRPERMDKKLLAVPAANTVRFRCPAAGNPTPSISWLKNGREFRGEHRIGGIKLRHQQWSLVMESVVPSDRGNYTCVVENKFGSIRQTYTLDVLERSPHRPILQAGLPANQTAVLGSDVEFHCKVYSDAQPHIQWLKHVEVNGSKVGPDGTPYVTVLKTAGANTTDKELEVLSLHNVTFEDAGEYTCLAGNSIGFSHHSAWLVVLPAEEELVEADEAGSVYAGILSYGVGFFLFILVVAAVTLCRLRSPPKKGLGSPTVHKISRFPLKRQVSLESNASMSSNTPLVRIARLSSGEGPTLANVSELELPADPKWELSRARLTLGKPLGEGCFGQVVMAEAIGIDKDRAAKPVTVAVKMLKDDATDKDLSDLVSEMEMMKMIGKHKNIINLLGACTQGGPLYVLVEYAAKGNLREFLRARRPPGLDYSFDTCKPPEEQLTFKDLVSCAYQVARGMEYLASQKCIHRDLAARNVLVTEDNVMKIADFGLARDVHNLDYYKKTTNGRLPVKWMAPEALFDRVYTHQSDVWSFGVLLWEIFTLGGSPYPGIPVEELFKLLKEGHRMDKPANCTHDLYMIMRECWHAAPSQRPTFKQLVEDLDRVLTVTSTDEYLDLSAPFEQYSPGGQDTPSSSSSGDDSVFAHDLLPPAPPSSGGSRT

Structure (SMILES)	IC50
O=C(NCC(F)(F)F)Nc1cccc(-c2cnc3cc(-c4cnn(C5CCN(C(=O)CC6CC6)CC5)c4)cnn23)c1 [Example 41, N-[3-(7-{1-[1-(Cyclopropylacetyl)piperidin-4-yl]-1H-pyrazol-4-yl}imidazo[1,2-b]pyridazin-3-yl)phenyl]-N′-(2,2,2-trifluoroethyl)urea]	< 10 nM
O=C(NCC(F)(F)F)Nc1cccc(-c2cnc3cc(-c4cnn(C5CCN(S(=O)(=O)Cc6ccccc6)CC5)c4)cnn23)c1 [Example 34, N-[3-(7-{1-[1-(Benzylsulfonyl)piperidin-4-yl]-1H-pyrazol-4-yl}imidazo[1,2-b]pyridazin-3-yl)phenyl]-N′-(2,2,2-trifluoroethyl)urea]	< 10 nM
CC(C(=O)N1CCC(C#N)C1)n1cc(-c2cnn3c(-c4cccc(NC(=O)NCC(F)(F)F)c4)cnc3c2)cn1 (stereo not drawn) [Example 67, N-[3-(7-{1-[2-(3-Cyanopyrrolidin-1-yl)-1-methyl-2-oxoethyl]-1H-pyrazol-4-yl}imidazo[1,2-b]pyridazin-3-yl)phenyl]-N′-(2,2,2-trifluoroethyl)urea]	< 10 nM
COCC(=O)N1CC(CC#N)(n2cc(-c3cnn4c(-c5cccc(NC(=O)NCC(F)(F)F)c5)cnc4c3)cn2)C1 [Example 75, N-[3-(7-{1-[3-(Cyanomethyl)-1-(methoxyacetyl)azetidin-3-yl]-1H-pyrazol-4-yl}imidazo[1,2-b]pyridazin-3-yl)phenyl]-N′-(2,2,2-trifluoroethyl)urea]	< 10 nM
O=C(NCC(F)(F)F)Nc1cccc(-n2cnc3cc(-c4cnn(C5CCN(C(=O)C6CCCO6)CC5)c4)ccc32)c1 (stereo not drawn) [Example 29, N-[3-(5-{1-[1-(Tetrahydrofuran-2-ylcarbonyl)piperidin-4-yl]-1H-pyrazol-4-yl}-1H-benzimidazol-1-yl)phenyl]-N′-(2,2,2-trifluoroethyl)urea]	< 10 nM
O=C(NCC(F)(F)F)Nc1cccc(-c2cnc3cc(-c4cnn(C5CCN(C(=O)CC6CCCC6)CC5)c4)cnn23)c1 [Example 35, N-[3-(7-{1-[1-(cyclopentylacetyl)piperidin-4-yl]-1H-pyrazol-4-yl}imidazo[1,2-b]pyridazin-3-yl)phenyl]-N′-(2,2,2-trifluoroethyl)urea]	< 10 nM
O=C(NCC(F)(F)F)Nc1cccc(-n2cnc3cc(-c4ccc(C(=O)NCC5CCCO5)cc4)ccc32)c1 (stereo not drawn) [Example 8, N-(Tetrahydrofuran-2-ylmethyl)-4-{1-[3-({[(2,2,2-trifluoroethyl)amino]carbonyl}amino)phenyl]-1H-benzimidazol-5-yl}benzamide]	< 10 nM
Cn1ccnc1CNC(=O)c1cccc(-c2ccc3c(c2)ncn3-c2cccc(NC(=O)NCC(F)(F)F)c2)c1 [Example 6, N-[(1-Methyl-1H-imidazol-2-yl)methyl]-3-{1-[3-({[(2,2,2-trifluoroethyl)amino]carbonyl}amino)phenyl]-1H-benzimidazol-5-yl}benzamide]	< 10 nM
CC(C(=O)N(C)C)c1ccc(-c2cnn3c(-c4cccc(NC(=O)NCC(F)(F)F)c4)cnc3c2)cc1 (stereo not drawn) [Example 99, N,N-Dimethyl-2-(4-{3-[3-({[(2,2,2-trifluoroethyl)amino]carbonyl}amino)phenyl]imidazo[1,2-b]pyridazin-7-yl}phenyl)propanamide]	< 10 nM
O=C(NCC(F)(F)F)Nc1cccc(-c2cnc3cc(-c4cnn(C5CCN(C(=O)N6CCCC6)CC5)c4)cnn23)c1 [Example 36, N-[3-(7-{1-[1-(Pyrrolidin-1-ylcarbonyl)piperidin-4-yl]-1H-pyrazol-4-yl}imidazo[1,2-b]pyridazin-3-yl)phenyl]-N′-(2,2,2-trifluoroethyl)urea]	< 10 nM
O=C(NCC(F)(F)F)Nc1cccc(-c2cnc3cc(-c4cnn(C5CCN(C(=O)C6CC(O)C6)CC5)c4)cnn23)c1 (stereo not drawn) [Example 47, N-{3-[7-(1-{1-[(3-hydroxycyclobutyl)carbonyl]piperidin-4-yl}-1H-pyrazol-4-yl)imidazo[1,2-b]pyridazin-3-yl]phenyl}-N′-(2,2,2-trifluoroethyl)urea]	< 10 nM
O=C(NCC(F)(F)F)Nc1cccc(-n2cnc3cc(-c4cnn(C5CCN(C(=O)CC6CC6)CC5)c4)ccc32)c1 [Example 27, N-[3-(5-{1-[1-(Cyclopropylacetyl)piperidin-4-yl]-1H-pyrazol-4-yl}-1H-benzimidazol-1-yl)phenyl]-N′-(2,2,2-trifluoroethyl)urea]	< 10 nM
O=C(NCC(F)(F)F)Nc1cccc(-n2cnc3cc(-c4ccc(C(=O)NCC5CC5)cc4)ccc32)c1 [Example 7, N-(Cyclopropylmethyl)-4-{1-[3-({[(2,2,2-trifluoroethyl)amino]carbonyl}amino)phenyl]-1H-benzimidazol-5-yl}benzamide]	< 10 nM
CC(C(=O)NC1CCN(C)CC1)n1cc(-c2cnn3c(-c4cccc(NC(=O)NCC(F)(F)F)c4)cnc3c2)cn1 (stereo not drawn) [Example 71, N-(1-Methylpiperidin-4-yl)-2-(4-{3-[3-({[(2,2,2-trifluoroethyl)amino]carbonyl}amino)phenyl]imidazo[1,2-b]pyridazin-7-yl}-1H-pyrazol-1-yl)propanamide]	< 10 nM
O=C(NCC(F)(F)F)Nc1cccc(-n2cnc3cc(-c4cnn(C5CCN(CC6CC6)CC5)c4)ccc32)c1 [Example 21, N-[3-(5-{1-[1-(Cyclopropylmethyl)piperidin-4-yl]-1H-pyrazol-4-yl}-1H-benzimidazol-1-yl)phenyl]-N′-(2,2,2-trifluoroethyl)urea]	< 10 nM
CC(C(=O)NCC#N)n1cc(-c2cnn3c(-c4cccc(NC(=O)NCC(F)(F)F)c4)cnc3c2)cn1 (stereo not drawn) [Example 66, N-(Cyanomethyl)-2-(4-{3-[3-({[(2,2,2-trifluoroethyl)amino]carbonyl}amino)phenyl]imidazo[1,2-b]pyridazin-7-yl}-1H-pyrazol-1-yl)propanamide]	< 10 nM
CC(C(=O)NCCN1CCOCC1)c1ccc(-c2cnn3c(-c4cccc(NC(=O)NCC(F)(F)F)c4)cnc3c2)cc1 (stereo not drawn) [Example 107, N-(2-Morpholin-4-ylethyl)-2-(4-{3-[3-({[(2,2,2-trifluoroethyl)amino]carbonyl}amino)phenyl]imidazo[1,2-b]pyridazin-7-yl}phenyl)propanamide]	< 10 nM
Cn1cc(C(=O)N2CCC(n3cc(-c4ccc5c(c4)ncn5-c4cccc(NC(=O)NCC(F)(F)F)c4)cn3)CC2)cn1 [Example 23, N-{3-[5-(1-{1-[(1-Methyl-1H-pyrazol-4-yl)carbonyl]piperidin-4-yl}-1H-pyrazol-4-yl)-1H-benzimidazol-1-yl]phenyl}-N′-(2,2,2-trifluoroethyl)urea]	< 10 nM
N#CCC1(n2cc(-c3cnn4c(-c5cccc(NC(=O)NCC(F)(F)F)c5)cnc4c3)cn2)CN(CC2CC2)C1 [Example 83, N-[3-(7-{1-[3-(Cyanomethyl)-1-(cyclopropylmethyl)azetidin-3-yl]-1H-pyrazol-4-yl}imidazo[1,2-b]pyridazin-3-yl)phenyl]-N′-(2,2,2-trifluoroethyl)urea]	10 to 25 nM
CC(C(=O)NC1CC1)n1cc(-c2cnn3c(-c4cccc(NC(=O)NCC(F)(F)F)c4)cnc3c2)cn1 (stereo not drawn) [Example 54, N-Cyclopropyl-2-(4-{3-[3-({[(2,2,2-trifluoroethyl)amino]carbonyl}amino)phenyl]imidazo[1,2-b]pyridazin-7-yl}-1H-pyrazol-1-yl)propanamide]	< 10 nM
O=C(NCC(F)(F)F)Nc1cccc(-n2cnc3cc(-c4cnn(C5CCN(C(=O)Nc6cccnc6)CC5)c4)ccc32)c1 [Example 25]	< 10 nM
